This is an account of results in patent US20050107343A1, “Pyrrolopyrimidines and related analogs as HSP90-inhibitors” (Conforma Therapeutics Corporation, priority 2003, published 2005).

SMILES strings stand for the structures.

Usually IC50 stands for the point on the concentration scale where inhibition reaches its midpoint.

The test system of one test is HER2/Neu protein. The test is described as follows: HER2 degradation assay. It counts as cell-based. As to conditions: Homo sapiens; 50% degradation of HER2/Neu protein, MCF7 cells, 16 h. On the procedure: MCF7 breast carcinoma cells (ATCC) were grown in Dulbecco's modified Eagle's medium (DMEM) containing 10% fetal bovine serum (FBS) and 10 mM HEPES, and plated in 24 well plates (50% confluent). Twenty-four hrs later (cells are 65-70% confluent), test compounds were added and incubated overnight for 16 h. […] The wells were washed with 1 mL phosphate buffered saline (PBS), and 200 μL trypsin was added to each well. After trypsinization was complete, 50 μL of FBS was added to each well. Then 200 μL cells was transferred to 96 well plates. The cells were pipetted up and down to obtain a single cell suspension. The plates were centrifuged at 2,500 rpm for 1 min using a Sorvall Legend RT™ tabletop centrifuge (Kendro Laboratory Products, Asheville, N.C.). The cells were then washed once in PBS containing 0.2% BSA and 0.2% sodium azide (BA buffer). Phycoerythrin (PE) conjugated anti HER2/Neu antibody (Becton Dickinson, #340552), or PE conjugated anti-keyhole limpet hemocyanin [KLH] (Becton Dickinson, #340761) control antibody was added at a dilution of 1:20 and 1:40 respectively (final concentration was 1 μg/mL) and the cells were pipeted up and down to form a single cell suspension, and incubated for 15 mins. The cells were washed twice with 200 μL BA buffer, and resuspended in 200 μL BA buffer, and transferred to FACSCAN tubes with an additional 250 μL BA buffer. Samples were analyzed using a FACSCalibur™ flow cytometer (Becton Dickinson, San Jose, Calif.) equipped with Argon-ion laser that emits 15 mW of 488 nm light for excitation of the PE fluorochrome. 10,000 events were collected per sample. A fluorescence histogram was generated and the mean fluorescence intensity (MFI) of each sample was determined using Celiquest software. The background was defined as the MFI generated from cells incubated with control IgG-PE, and was subtracted from each sample stained with the HER2/Neu antibody. Cells incubated with DMSO were used as untreated controls since the compounds were resuspended in DMSO. Percent degradation of HER2 was calculated as follows: % HER2 degraded=[(MF1 untreated cells−MF1 treated cells)/MF1 untreated cell]×100
IC50 is defined as the concentration at which there was 50% degradation of the HER2/Neu protein.

In test [1] the test system is rHSP90 in the MCF7 cell lysates. The test is described as follows: Cell lysate binding assay. As to conditions: 50% inhibition of biotin-GM binding to rHSP90 in MCF7 cell lysates. On the procedure:
Cell Lysate Binding Assay
MCF7 breast carcinoma cell lysates were prepared by douncing in lysing buffer (20 mM HEPES, pH 7.3, 1 mM EDTA, 5 mM MgCl2, 100 mM KCl), and then incubated with or without test compound for 30 mins at 4° C., followed by incubation with biotin-GM linked to BioMag™ streptavidin magnetic beads (Qiagen) for 1 hr at 4° C. The tubes were placed on a magnetic rack, and the unbound supernatant removed. The magnetic beads were washed three times in lysis buffer and boiled for 5 mins at 95° C. in SDS-PAGE sample buffer. Samples were analyzed on SDS protein gels, and Western blots were done for rHSP90. Bands in the Western Blots were quantitated using the Bio-rad Fluor-S MultiImager, and the % inhibition of binding of rHSP90 to the biotin-GM was calculated.
The IC50 reported is the concentration of test compound needed to achieve 50% inhibition of the biotin-GM binding to rHSP90 in the MCF7 cell lysates.

The subject of test [2] is MCF7 breast carcinoma cells. The test is described as follows: MTS assay. The format is cell-based. As to conditions: Homo sapiens, 50% reduction in viable cell number. On the procedure:
MTS assays measure the cytotoxicity of geldanamycin derivatives. MTS (3-(4,5-dimethylthiazol-2-yl)-5-(3-carboxymethoxyphenyl)-2-(4-sulfophenyl)-2H-tetrazolium) is a tetrazolium dye that is converted to a formazan product by dehydrogenase enzymes of metabolically active cells (Corey, A. et al. “Use of an aqueous soluble tetrazolium/formazan assay for cell growth assays in culture,” Cancer Commun. 1991, 3, 207-212). Cells were seeded in 96 well plates at 2000 cells/well and allowed to adhere overnight in Dulbecco's modified Eagle's medium supplemented with 10% fetal bovine serum. The final culture volume was 100 μl. Viable cell number was determined by using the Celltiter 96 AQueous Non-radioactive Cell Proliferation Assay (Promega, Madison Wis.). The MTS /PMS (phenazine methosulfate) solution was mixed at a ratio of 20:1, and 20 μL was added per well to 100 μl of culture medium. After 2-4 hours, the formation of the formazan product was measured at 490 nm absorbance using a multiwell plate spectrophotometer. Background was determined by measuring the Abs 490 nm of cell culture medium and MTS-PMS in the absence of cells and was subtracted from all values. Percent viable cells was calculated as follows: % viable cells=(Abs at 490 nm treated cells/Abs at 490 nm untreated cells)×100
The effect of selected compounds of the invention on MCF7 breast carcinoma cells according to the MTS assay is summarized in Table 2. IC50 was defined as the concentration of the compound which gave rise to 50% reduction in viable cell number.

In the test with HER2/Neu protein, `COc1c(C)cnc(CN2C(=O)Cc3c(Cl)nc(N)nc32)c1C` had an IC50 of 450 nM.

In the case of `COc1c(C)cnc(Cn2ccc3c(Cl)nc(N)nc32)c1C` [Example 5, 4-Chloro-7-(4-methoxy-3,5-dimethyl-pyridin-2-ylmethyl)-7H-pyrrolo[2,3-d]pyrimidin-2-ylamine], the IC50 in test [1] is 150 nM; in the test on HER2/Neu protein, 95 nM; in test [2] it was 300 nM.

Turning to `COc1c(C)c[n+]([O-])c(Cn2ccc3c(Cl)nc(N)nc32)c1C` [Example 8, 4-Chloro-7-(4-methoxy-3,5-dimethyl-1-oxy-pyridin-2-ylmethyl)-7H-pyrrolo[2,3-d]pyrimidin-2-ylamine], the concentration for half-maximal inhibition (IC50) in the test with HER2/Neu protein turned out to be 23 nM; in test [2], 100 nM.

Turning to `COc1c(C)c(Cl)nc(Cn2ccc3c(Cl)nc(N)nc32)c1C` [Example 10, 4-Chloro-7-(6-chloro-4-methoxy-3,5-dimethyl-pyridin-2-ylmethyl)-7H-pyrrolo [2,3-d]pyrimidin-2-ylamine], the IC50 is 250 nM in the test on HER2/Neu protein and 600 nM in test [2].

With `Cc1cnc(Cn2ccc3c(Cl)nc(N)nc32)c(C)c1Cl` [Example 11, 4-Chloro-7-(4-chloro-3,5-dimethyl-pyridin-2-ylmethyl)-7H-pyrrolo[2,3-d]pyrimidin-2-ylamine], the IC50 stood at 90 nM in test [1], 80 nM in the test with HER2/Neu protein and 200 nM in test [2].

With `Cc1cnc(Cn2ccc3c(Cl)nc(N)nc32)c(C)c1Br` [Example 13, 7-(4-Bromo-3,5-dimethyl-pyridin-2-ylmethyl)-4-chloro-7H-pyrrolo[2,3-d]pyrimidin-2-ylamine], the IC50 turned out to be 90 nM in test [1], 50 nM in the test with HER2/Neu protein and 1000 nM in test [2].

As to `Cc1c[n+]([O-])c(Cn2ccc3c(Cl)nc(N)nc32)c(C)c1Cl` [Example 14, 4-Chloro-7-(4-chloro-3,5-dimethyl-1-oxy-pyridin-2-ylmethyl)-7H-pyrrolo[2,3-d]pyrimidin-2-ylamine], the results for the half-maximal inhibitory concentration (IC50) (in test [1]; in the test with HER2/Neu protein; in test [2]) were 50 nM, 38 nM and 1000 nM, respectively.

As for `Cc1c[n+]([O-])c(Cn2ccc3c(Cl)nc(N)nc32)c(C)c1Br` [Example 15, 7-(4-Bromo-3,5-dimethyl-1-oxy-pyridin-2-ylmethyl)-4-chloro-7H-pyrrolo[2,3-d]pyrimidin-2-ylamine], the figures for the IC50 (in test [1]; in the test on HER2/Neu protein; in test [2]) were 30 nM, 15 nM and 23 nM, respectively.

With `COc1c(C)c[n+]([O-])c(Cn2ccc3c(Br)nc(N)nc32)c1C` [Example 20, 4-Bromo-7-(4-methoxy-3,5-dimethyl-1-oxy-pyridin-2-ylmethyl)-7H-pyrrolo[2,3-d]pyrimidin-2-ylamine], the IC50 was 42 nM in the test on HER2/Neu protein and 1000 nM in test [2].

Consider `Cc1cnc(Cn2ccc3c(Br)nc(N)nc32)c(C)c1Cl` [Example 21, 4-Bromo-7-(4-chloro-3,5-dimethyl-pyridin-2-ylmethyl)-7H-pyrrolo[2,3-d]pyrimidin-2-ylamine], for which the IC50 with HER2/Neu protein was 170 nM; in test [2], more than 10000 nM.

With `Cc1c[n+]([O-])c(Cn2ccc3c(Br)nc(N)nc32)c(C)c1Cl` [Example 22, 4-Bromo-7-(4-chloro-3,5-dimethyl-1-oxy-pyridin-2-ylmethyl)-7H-pyrrolo[2,3-d]pyrimidin-2-ylamine], the IC50 in the test on HER2/Neu protein was found to be 65 nM; in test [2] it was 1000 nM.

As to `Cc1cnc(Cn2ccc3c(Br)nc(N)nc32)c(C)c1Br` [Example 23, 4-Bromo-7-(4-bromo-3,5-dimethyl-pyridin-2-ylmethyl)-7H-pyrrolo[2,3-d]pyrimidin-2-ylamine], the concentration for half-maximal inhibition (IC50) in the test with HER2/Neu protein is 130 nM; in test [2], more than 10000 nM.

Take `Cc1c[n+]([O-])c(Cn2ccc3c(Br)nc(N)nc32)c(C)c1Br` [Example 24, 4-Bromo-7-(4-bromo-3,5-dimethyl-1-oxy-pyridin-2-ylmethyl)-7H-pyrrolo[2,3-d]pyrimidin-2-ylamine]: the results for the IC50 (in the test with HER2/Neu protein; in test [2]) were 25 nM and 300 nM, respectively.

Take `COc1c(C)cnc(Cn2ccc3c(Br)nc(N)nc32)c1C` [Example 25, 4-Bromo-7-(4-methoxy-3,5-dimethyl-pyridin-2-ylmethyl)-7H-pyrrolo[2,3-d]pyrimidin-2-ylamine]: the IC50 with HER2/Neu protein is 150 nM; in test [2] it was more than 10000 nM.

For the compound `COc1c(C)cnc(Cn2cc(C(C)C)c3c(Cl)nc(N)nc32)c1C` [Example 43, 4-Chloro-5-isopropyl-7-(4-methoxy-3,5-dimethyl-pyridin-2-ylmethyl)-7H-pyrrolo[2,3-d]pyrimidin-2-ylamine], it took 130 nM to reach half-maximal inhibition with HER2/Neu protein (IC50).

Turning to `Cc1c[n+]([O-])c(Cn2cc(C(C)C)c3c(Cl)nc(N)nc32)c(C)c1Cl` [Example 45], the IC50 with HER2/Neu protein was 20 nM. Compared with the last compound, the IC50 is about 6.5-fold lower.

In the test on HER2/Neu protein, `Cc1cnc(CN2C(=O)Cc3c(Cl)nc(N)nc32)c(C)c1Cl` [Example 48, 2-Amino-4-chloro-7-(4-chloro-3,5-dimethyl-pyridin-2-ylmethyl)-5,7-dihydro-pyrrolo[2,3-d]pyrimidin-6-one] had an IC50 of 1500 nM.

Consider `COc1c(C)c[n+]([O-])c(CN2C(=O)Cc3c(Cl)nc(N)nc32)c1C` [Example 49, 2-Amino-4-chloro-7-(3,5-dimethyl-4-methoxy-1-oxy-pyridin-2-ylmethyl)-5,7-dihydro-pyrrolo[2,3-d]pyrimidin-6-one], for which the values for the IC50 (with HER2/Neu protein; in test [2]) were 180 nM and 900 nM, respectively.

Regarding `COc1cc(CN2C(=O)Cc3c(Cl)nc(N)nc32)c(Br)c(OC)c1OC` [Example 52, 2-Amino-4-chloro-7-(2-bromo-3,4,5-trimethoxy-benzyl)-5,7-dihydro-pyrrolo[2,3-d]pyrimidin-6-one], the IC50 with HER2/Neu protein was found to be 400 nM; in test [2] it was 10000 nM.
